# PMC10895678 (Journal of Medicinal Chemistry, 2024)
# Values joined by “and” are separate entries in the source; they are usually repeats but may differ in a detail not shown here. Equal values may be shown once. Read-outs that look alike come from different tables or passages of the source.
# Experiment: Mouse PK, combined (cassette) dosing of BGAz-001–005
# Format: in vivo, KM mice
# Design: AUMC(0-t) / VRT(0-t) / λz: unit not given here
# Details: for AUC(0-t): read-out: AUC(0-t); for MRT last: read-out: MRT(0-t); for MRT inf: read-out: MRT(0-∞); for Vd/F: read-out: Vz/F
# Description: Methods for combined single dosing (BGAz001–005) and dosing of single compounds multiple times (BGAz004 and BGAz005) are described in detail in the Supporting Information (PK Data).
# Report on PK Results of Combined Dosing with BGAz-001–005
# 1 Materials and instrument combined dosing
# An MS2 Turnover type oscillator was purchased from IKA Work’s Guangzhou (China), and a 5415R ChromatographicanalyseswereconductedusinganAgilent1290InfinityIIhighperformanceliquidchromatography andAgilentTechnologies6470TripleQuadLC/MS.Propranolol(≥90%inpurity,internalstandard,IS)waspurchased fromtheSigmaChemicalCo.(China).Formicacid(HPLCgrade)andmethanol(HPLCgrade)werepurchasedfrom DIKMACo.(China).Allchemicalsandsolventswereanalyticalgrade.WaterwaspurifiedusingaMillipore(AK,USA) laboratoryultra-purewatersystem(0.2μmfilter).
# KMmice,weighing25–35g(BeijingVitalRiverLaboratoryAnimalTechnologyCo.,Ltd.,China)wereutilisedforthe studies.The protocols were approved by the Animal Care and Use Committee, GIBH. Animals were maintained on standard animal chow and waterad libitum, in a climate-controlled room (23±1 °C 30–70% relative humidity, a minimumof tenexchangesof roomairperhouranda12hlight/darkcycle)foroneweekpriortoexperiments.
# 3 Pharmacokinetic studies
# Compounds BGAz-001 ，BGAz-002 ，BGAz-003 ，BGAz-004 and BGAz-005 were dissolved mixed in a solution containing DMSO (2%),ethanol (4%), Cremophor EL (4%) and ddH2O (90%); Pharmacokinetic propertiesof KM (male) were determined following IV, PO and IP administration. Animals were randomly distributed into three experimentalgroups(n=4).ThePOgroupwasgivenmixedsolutionwith5mg/kgbygastricgavage.TheIVgroup was dosed with mixed solution 1mg/kg byinjection into the tail vein. The IP group was dosed with mixed solution 1mg/kg by intraperitoneal injection. After single administration, whole blood samples (100 μL) were obtained from the orbital venousplexus atthe followingtime pointsafter dosing:5, 15,30 minand 1,3, 5,8, 24hour (PO and IP groups) and at the following time points after dosing 2, 10, 30min and 1, 3, 5, 8,24 hour (IV group). Wholeblood samples were collected in heparinised tubes. The plasma fraction was immediately separated by centrifugation. The micewerehumanelyeuthanasiabycarbondioxide24hoursafterexperimentwithoutpain.
# 4 Plasma sample and brain sample analysis
# 4.1 Standard curve sample preparation
# ThecompoundsweredissolvedinDMSO(2mg/mL)anddilutedwithtoseriesconcentration(methanol:H 2O,1:1,10 μL) and blank plasma (50 μL) were added to 1.5 mL tubes and vortexed for 3 min, then acetonitrile-containing internalstandard(150μL)wasaddedandvortexedforafurther5min,andsubsequentlyspuninacentrifugeat13000 […]
# 4.2 Plasma and preparation
# Plasmasampleswerepreparedusingaproteinprecipitationmethod.Solution(10μL,methanolH 2O,1:1)andplasma samples(50μL)wereaddedto1.5mLtubesandvortexfor3min,thenacetonitrile-containinginternalstandard(150 μL)wasaddedandvortexfor5min,andsubsequentlyspuninacentrifugeat13000× gfor40minat4°C.
# Aftercentrifugation,supernatant(100μL)wastransferto96wellplatesandanalysedbyLC-MS/MSusinganAgilent 1290InfinityIIHPLCandanAgilentTechnologies6470TripleQuadLC/MS.
# [1] = IP 1 mg/kg, cassette, mean of animals
# [2] = IV 1 mg/kg, cassette, mean of animals
# [3] = PO 5 mg/kg, cassette, mean of animals
# [4] = male, KM, mouse, plasma, IP 1 mg/kg, cassette
# [5] = male, KM, mouse, plasma, IP 1 mg/kg, cassette, mean of animals
# [6] = male, KM, mouse, plasma, IV 1 mg/kg, cassette
# [7] = male, KM, mouse, plasma, IV 1 mg/kg, cassette, mean of animals
# [8] = male, KM, mouse, plasma, PO 5 mg/kg, cassette
# [9] = male, KM, mouse, plasma, PO 5 mg/kg, cassette, mean of animals
compound,measurement,setting,value
Brc1cc(Br)cc(C2CC(CN3CCCC3)N2Cc2ccccc2Br)c1 (stereo not drawn) [BGAz-004],AUMC(0-t),[1],3591.68 **μg
same,AUMC(0-∞),[1],7580.816 **μg
same,CLz/F,[1],1.737 L/kg
same,C_last,[1],7.173 µg
same,R_AUC(t/∞),[1],82.475%
same,VRT(0-t),[1],44.576 ^2
same,VRT(0-∞),[1],210.175 ^2
same,λz,[1],0.071 1/
same,AUC(0-∞),"IP 1 mg/kg, cassette, summary table",581.359 µg·h
same,AUMC(0-t),[2],5267.479 **μg
same,AUMC(0-∞),[2],9388.553 **μg
same,CLz/F,[2],1.659 L/kg
same,C_last,[2],6.542 µg
same,R_AUC(t/∞),[2],90.625%
same,VRT(0-t),[2],43.967 ^2
same,VRT(0-∞),[2],134.645 ^2
same,Vz/F,[2],17.622 L/kg
same,λz,[2],0.091 1/
same,AUC(0-∞),"IV 1 mg/kg, cassette, summary table",789.43 µg·h
same,BA,"PO 5 mg/kg vs IV 1 mg/kg, cassette",35.64%
same,AUMC(0-t),[3],7719.114 **μg
same,AUMC(0-∞),[3],23536.035 **μg
same,CLz/F,[3],3.927 L/kg
same,C_last,[3],32.311 µg
same,R_AUC(t/∞),[3],62.325%
same,VRT(0-t),[3],36.246 ^2
same,VRT(0-∞),[3],301.909 ^2
same,λz,[3],0.069 1/
same,AUC(0-∞),"PO 5 mg/kg, cassette, summary table",1406.796 µg·h
same,AUC(0-inf),"male, KM, mouse, plasma, ip, 1 mg/kg, IP 1 mg/kg, cassette, mean of animals, read-out: AUC(0-∞)",581 ng·h/mL
same,Cmax,"male, KM, mouse, plasma, ip, 1 mg/kg, IP 1 mg/kg, cassette, mean of animals, read-out: Cmax",61 ng/mL
same,Tmax,"male, KM, mouse, plasma, ip, 1 mg/kg, IP 1 mg/kg, cassette, mean of animals, read-out: Tmax",0.271 h
same,Cmax,"male, KM, mouse, plasma, ip, 1 mg/kg, IP 1 mg/kg, cassette, summary table, read-out: Cmax",61 ng/mL
same,half-life,"male, KM, mouse, plasma, ip, 1 mg/kg, IP 1 mg/kg, cassette, summary table, read-out: T1/2 (converted)",9.82 h
same,Tmax,"male, KM, mouse, plasma, ip, 1 mg/kg, IP 1 mg/kg, cassette, summary table, read-out: Tmax",0.271 h
same,AUC(0-inf),"male, KM, mouse, plasma, iv, 1 mg/kg, IV 1 mg/kg, cassette, mean of animals, read-out: AUC(0-∞)",789 ng·h/mL
same,Cmax,"male, KM, mouse, plasma, iv, 1 mg/kg, IV 1 mg/kg, cassette, mean of animals, read-out: Cmax",278 ng/mL
same,Tmax,"male, KM, mouse, plasma, iv, 1 mg/kg, IV 1 mg/kg, cassette, mean of animals, read-out: Tmax",0.033 h
same,Cmax,"male, KM, mouse, plasma, iv, 1 mg/kg, IV 1 mg/kg, cassette, summary table, read-out: Cmax",278 ng/mL
same,half-life,"male, KM, mouse, plasma, iv, 1 mg/kg, IV 1 mg/kg, cassette, summary table, read-out: T1/2 (converted)",8.29 h
same,Tmax,"male, KM, mouse, plasma, iv, 1 mg/kg, IV 1 mg/kg, cassette, summary table, read-out: Tmax",0.033 h
same,AUC(0-inf),"male, KM, mouse, plasma, po, 5 mg/kg, 5 mg/kg PO, cassette dosing, read-out: AUC0-inf",1410 ng·h/mL
same,Cmax,"male, KM, mouse, plasma, po, 5 mg/kg, 5 mg/kg PO, cassette dosing, read-out: Cmax (Mouse, P.O.)",87.6 ng/mL
same,half-life,"male, KM, mouse, plasma, po, 5 mg/kg, 5 mg/kg PO, cassette dosing, read-out: T1/2 (Mouse, P.O.) (converted)",11.4 h
same,Tmax,"male, KM, mouse, plasma, po, 5 mg/kg, 5 mg/kg PO, cassette dosing, read-out: Tmax (Mouse, P.O.)",0.87 h
same,AUC(0-inf),"male, KM, mouse, plasma, po, 5 mg/kg, PO 5 mg/kg, cassette, mean of animals, read-out: AUC(0-∞)",1410 ng·h/mL
same,Cmax,"male, KM, mouse, plasma, po, 5 mg/kg, PO 5 mg/kg, cassette, mean of animals, read-out: Cmax",87.6 ng/mL
same,Tmax,"male, KM, mouse, plasma, po, 5 mg/kg, PO 5 mg/kg, cassette, mean of animals, read-out: Tmax",0.875 h
same,Cmax,"male, KM, mouse, plasma, po, 5 mg/kg, PO 5 mg/kg, cassette, summary table, read-out: Cmax",87.6 ng/mL
same,half-life,"male, KM, mouse, plasma, po, 5 mg/kg, PO 5 mg/kg, cassette, summary table, read-out: T1/2 (converted)",11.4 h
same,Tmax,"male, KM, mouse, plasma, po, 5 mg/kg, PO 5 mg/kg, cassette, summary table, read-out: Tmax",0.875 h
same,concentration at 0.083 h,[4],55.3 ng/mL and 100 nM
same,concentration at 0.25 h,[4],110 nM and 60.1 ng/mL
same,concentration at 0.5 h,[4],90 nM and 50.3 ng/mL
same,concentration at 1 h,[4],70 nM and 39.4 ng/mL
same,concentration at 3 h,[4],60 nM and 31 ng/mL
same,concentration at 5 h,[4],50 nM and 24.4 ng/mL
same,concentration at 8 h,[4],40 nM and 21.8 ng/mL
same,concentration at 24 h,[4],10 nM and 7.15 ng/mL
same,AUC(0-t),[5],478 ng·h/mL
same,MRT last,[5],7.49 h
same,MRT inf,[5],12.9 h
same,Vd/F,[5],24.4 L/kg
same,concentration at 0.033 h,"male, KM, mouse, plasma, IV 1 mg/kg, cassette, 0.033 h",278 ng/mL and 520 nM
same,concentration at 0.167 h,"male, KM, mouse, plasma, IV 1 mg/kg, cassette, 0.167 h",270 nM and 148 ng/mL
same,concentration at 0.5 h,[6],160 nM and 84.6 ng/mL
same,concentration at 1 h,[6],170 nM and 89.6 ng/mL
same,concentration at 3 h,[6],80 nM and 40.5 ng/mL
same,concentration at 5 h,[6],50 nM and 28.3 ng/mL
same,concentration at 8 h,[6],40 nM and 21.6 ng/mL
same,concentration at 24 h,[6],30 nM and 15.1 ng/mL
same,C0,[7],327 ng/mL
same,AUC(0-t),[7],688 ng·h/mL
same,MRT last,[7],6.4 h
same,MRT inf,[7],9.25 h
same,concentration at 0.083 h,[8],17.3 ng/mL and 30 nM
same,concentration at 0.25 h,[8],80 nM and 42.6 ng/mL
same,concentration at 0.5 h,[8],120 nM and 65.1 ng/mL
same,concentration at 1 h,[8],160 nM and 84.4 ng/mL
same,concentration at 3 h,[8],130 nM and 68.4 ng/mL
same,concentration at 5 h,[8],120 nM and 63.3 ng/mL
same,concentration at 8 h,[8],110 nM and 60.5 ng/mL
same,concentration at 24 h,[8],40 nM and 22.2 ng/mL
same,AUC(0-t),[9],945 ng·h/mL
same,MRT last,[9],6.82 h
same,MRT inf,[9],15.7 h
same,Vd/F,[9],58.1 L/kg
